Patent US5167948A, “Diagnostic or radiotherapeutic composition comprising a hydrogen containing compound” (priority 1987, dated 1992)

How the values were obtained:
[1] = Determination of the relaxation of the water protons (relaxation time T1, inversion recovery method); format: physicochemical; conditions: for T1: 2 millimolar solution in water, 89.55 MHz, room temp.
Protocol: Determination of the relaxation of the water protons by adding paramagnetic deuterated ferricinium compounds compared to the corresponding non-deuterated compounds. The following compounds are tested:
From the above compounds 2 millimolar solutions in water are prepared. Of these solutions the relaxation time T1 is determined at 89.55 MHz on a JEOL FX-90Q NMR spectrometer using the inversion recovery method (room temp.). In the experiments comprising in addition deuterium oxide, D2 O is added in a quantity of 1.0 mMole to a volume of 100 ml of the solution.

[2] = 103Ru-concentration in organs of rats after injection of Rc-amphetamine derivatives; format: in vivo; conditions: for 103Ru-concentration, brains / 103Ru-concentration, lungs / 103Ru-concentration, suprarenal glands: 0.5 μmol/kg; for D/H, brains / D/H, lungs / D/H, suprarenal glands: quotient deuterated / non-deuterated
Protocol: The above compounds are intravenously administered in doses of approx. 0.5 μmol/kg to two groups of each 4 rats. The compounds can be represented by the following formula: [drawing 7] After certain periods of time between 0 and 90 minutes after injection test animals are sacrificed and the ^103 Ru-concentration in the brains is determined. The results are graphically recorded in FIG. 1: the ^103 Ru-concentration (C) in the brains i.c. % dose/% body weight (% d/% wt), is plotted against the time (t) in min.
In the same way as described in Example X the effect of deuteration of N-methyl- and N,N-dimethylderivatives of ^103 Ru-labelled ruthenocene-amphetamine is investigated in vivo: groups of 3 or 4 rats as test animals; dose: 0.5 μmol/kg. After 15 or 20 minutes the ^103 Ru-concentration is determined in various organs of the rats, viz. brains, lungs and suprarenal glands, and presented in table B for the compounds tested. As will be apparent from the D/H value, i.e. the quotient of the ^103 Ru concentration of the deuterated compound and that of the non-deuterated compound, in all experiments except one (free amine-lungs) the affinity of the deuterated compounds to the organs is increased compared to the non-deuterated compounds.

[3] = tracer amounts, man; in words; cited from earlier work
[4] = + D2O, 1.0 mMole added to 100 ml of the solution

`F[B-](F)(F)F.[Fe+3].c1cc[cH-]c1.c1cc[cH-]c1` [(c), [(C5 H5)2 Fe]^+ BF4^-] gave a T1 [1] of 1.65 s and a T1 [1, 4] of 1.64 s.
With `[103Ru+2].[2H]C([c-]1cccc1)C([2H])(C)N(C([2H])([2H])[2H])C([2H])([2H])[2H].c1cc[cH-]c1` (stereo not drawn) [--N,N-dimethyl D] the “103Ru-concentration, brains” value ([2]; 15 min.) was 3.33 % dosis/% body weight, the “103Ru-concentration, lungs” value ([2]; 15 min.) was 10.5 % dosis/% body weight and the “103Ru-concentration, suprarenal glands” value ([2]; 15 min.) was 11.9 % dosis/% body weight. For the same molecule, the “D/H, brains” value ([2]; 15 min.) was 1.45, the “D/H, lungs” value ([2]; 15 min.) was 1.32 and the “D/H, suprarenal glands” value ([2]; 15 min.) was 1.57.
In the case of `[103Ru+2].[2H]C([c-]1cccc1)C([2H])(C)NC([2H])([2H])[2H].c1cc[cH-]c1` (stereo not drawn) [--N-methyl D], the “103Ru-concentration, brains” value ([2]; 15 min.) is reported as 2.56 % dosis/% body weight, the “103Ru-concentration, lungs” value ([2]; 15 min.) is reported as 11.3 % dosis/% body weight and the “103Ru-concentration, suprarenal glands” value ([2]; 15 min.) is reported as 8.3 % dosis/% body weight. For the same molecule, the “D/H, brains” value ([2]; 15 min.) was 1.12, the “D/H, lungs” value ([2]; 15 min.) was 1.26 and the “D/H, suprarenal glands” value ([2]; 15 min.) was 1.77.
With `[2H]C([c-]1cccc1)C([2H])(C)N.[Ru+2].c1cc[cH-]c1` (stereo not drawn) [--NH2 D, ^103 Ru-1-ruthenocenyl-2-aminopropane-1,2-d2] the “103Ru-concentration, brains” value ([2]; 20 min.) was 2.56 % dosis/% body weight, the “103Ru-concentration, lungs” value ([2]; 20 min.) was 10.5 % dosis/% body weight and the “103Ru-concentration, suprarenal glands” value ([2]; 20 min.) was 6.2 % dosis/% body weight. For the same molecule, the “D/H, brains” value ([2]; 20 min.) was 1.31, the “D/H, lungs” value ([2]; 20 min.) was 0.85 and the “D/H, suprarenal glands” value ([2]; 20 min.) was 1.29. For the same molecule, the “D/H, lungs” value ([2]; 20 min., listed as free amine) was “decreased value”.
With `[2H]O[2H]` [D2 O, deuterium oxide] the “effect of D2O on relaxation time” value ([1]; in words, not bound to the complex) was “does not change the relaxation time significantly”.
In the case of `[2H]C([2H])([2H])CC(=O)C(CC(C)N(C)C)(c1ccccc1)c1ccccc1` (stereo not drawn) [methadone-d3], the “metabolic behaviour compared with the unmodified drug” value [3] is listed as “substantially identical metabolic behaviour”.
Work on [(C5 D5)2 Fe]^+ BF4^- [(d)] yielded a T1 [1] of 1.04 s.
With [(CH3 -C5 D4)2 Fe]^+ BF4^- [(b)] the T1 [1] was 1.23 s.
With [(CH3 -C5 H4)2 Fe]^+ BF4^- [(a)] the T1 [1] was 1.62 s and the T1 [1, 4] was 1.60 s.
